Drawing on patent US20210369853A1, “TARGETED PROTEASE DEGRADATION PLATFORM” (EUBULUS BIOTHERAPEUTICS INC., priority 2018, published 2021), this text covers EC50 for 32 compounds.

The test system of the assay is Human Monocytic Leukemia MV4-11. Nature of the assay: Cell proliferation experiment (Alarm blue, 72 h, EC50). Type of assay: cell-based. As to conditions: Homo sapiens, MV4-11, MV4;11 cells. On the procedure:
(2.1) Cell Proliferation Experiment:
Reagents: RPMI-1640 medium, McCoy's 5A medium, IMDM medium, MEM medium, L-15 medium, fetal bovine serum, Penicillin-Streptomycin double antibody, trypsin, etc., 2-mercaptoethanol, NEAA, pyruvate, etc.
The cells were cultured in conventional ways, and the cells should be passed at least for at least 2 generations before plating. Cells at the logarithmic growth phase are collected, prepared into single cell suspensions and counted. The concentration of cells was adjusted to the desired concentration, and cells were inoculated into a 96-well cell culture plate at 100 μl per well. 100 μL of complete medium of the test compound were added to each well, set up 2 duplicates for each concentration, and diluted with a 5-fold gradient, and continue to culture for 72 h. All cells were subjected to EC50 test for corresponding samples.
The fluorescence intensity of each well was detected using the Alarm blue method, and EC50 was calculated.
EC50 was calculated according to the following formula:
Y=Max+(Min−Max)/[1+(X/EC50)×Slope]
wherein Min, Max and Slope represent the minimum, maximum and slope respectively.
`CC[C@@H]1c2c(C#N)ncn2-c2cnc(Nc3ccc(C(=O)NCCNc4cccc5c4CN(C4CCC(=O)NC4=O)C5=O)cc3OC)nc2N1C1CCCC1` (some centres unmarked) [UB-180608]: the EC50 (commonly the concentration needed to bring the measured effect to its halfway point) lay within 100 to 1000 nM.
Under `Cc1ncsc1-c1ccc(CNC(=O)[C@@H]2C[C@@H](O)CN2C(=O)[C@@H](NC(=O)CCOCCCOCCOCCNC(=O)c2ccc(Nc3ncc4c(n3)-c3ccc(Cl)cc3C(c3c(F)cccc3F)=NC4)cc2)C(C)(C)C)cc1` [UB-180609] stands 10 to 100 nM; under `Cc1ncsc1-c1ccc(CNC(=O)[C@@H]2C[C@@H](O)CN2C(=O)[C@@H](NC(=O)CCOCCOCCOCCNC(=O)[C@]2(Cc3cccc(Nc4nccs4)n3)CC[C@@H](Oc3cccc(Cl)c3F)CC2)C(C)(C)C)cc1` [UB-180612], 100 to 1000 nM; under `Cc1ncsc1-c1ccc(CNC(=O)[C@@H]2C[C@@H](O)CN2C(=O)[C@@H](NC(=O)CCNC(=O)c2ccc(Nc3ncc4c(n3)-c3ccc(Cl)cc3C(c3c(F)cccc3F)=NC4)cc2)C(C)(C)C)cc1` [UB-180613], 100 to 1000 nM.
Under `Cc1ncsc1-c1ccc(CNC(=O)[C@@H]2C[C@@H](O)CN2C(=O)[C@@H](NC(=O)CCNC(=O)[C@]2(Cc3cccc(Nc4nccs4)n3)CC[C@@H](Oc3cccc(Cl)c3F)CC2)C(C)(C)C)cc1` [UB-180614] stands greater than 1000 nM; under `Cc1ncsc1-c1ccc(CNC(=O)[C@@H]2C[C@@H](O)CN2C(=O)[C@@H](NC(=O)CCOCCOCCOCCNC(=O)c2ccc(Nc3ncc4c(n3)-c3ccc(Cl)cc3C(c3c(F)cccc3F)=NC4)cc2)C(C)(C)C)cc1` [UB-180615], 10 to 100 nM; under `CC[C@@H]1C(=O)N(C)c2cnc(Nc3ccc(C(=O)NCCC(=O)Nc4cccc5c4CN(C4CCC(=O)NC4=O)C5=O)cc3OC)nc2N1C1CCCC1` (some centres unmarked) [UB-180618], greater than 1000 nM.
Under `CC[C@@H]1C(=O)N(C)c2cnc(Nc3ccc(C(=O)NCCOCCOCCNCCC(=O)N[C@H](C(=O)N4C[C@H](O)C[C@H]4C(=O)NCc4ccc(-c5scnc5C)cc4)C(C)(C)C)cc3OC)nc2N1C1CCCC1` [UB-180619] stands greater than 1000 nM; under `CC[C@@H]1c2c(C#N)ncn2-c2cnc(Nc3ccc(C(=O)NCCC(=O)Nc4cccc5c4CN(C4CCC(=O)NC4=O)C5=O)cc3OC)nc2N1C1CCCC1` (some centres unmarked) [UB-180621], greater than 1000 nM.
`CC[C@@H]1C(=O)N(C)c2cnc(Nc3ccc(C(=O)NCCC(=O)N[C@H](C(=O)N4C[C@H](O)C[C@H]4C(=O)NCc4ccc(-c5scnc5C)cc4)C(C)(C)C)cc3OC)nc2N1C1CCCC1` [UB-180622] had an EC50 of 10 to 100 nM.
Under `CC[C@@H]1c2c(C#N)ncn2-c2cnc(Nc3ccc(C(=O)NCCC(=O)N[C@H](C(=O)N4C[C@H](O)C[C@H]4C(=O)NCc4ccc(-c5scnc5C)cc4)C(C)(C)C)cc3OC)nc2N1C1CCCC1` [UB-180623] stands greater than 1000 nM; under `CC[C@@H]1C(=O)N(C)c2cnc(Nc3ccc(C(=O)NCCOCCOCCOCCNCCCCCC(=O)Nc4cccc5c4CN(C4CCC(=O)NC4=O)C5=O)cc3OC)nc2N1C1CCCC1` (some centres unmarked) [UB-180649], 10 to 100 nM; under `CC[C@@H]1C(=O)N(C)c2cnc(Nc3ccc(C(=O)NCCOCCNCCCCCCCC(=O)Nc4cccc5c4CN(C4CCC(=O)NC4=O)C5=O)cc3OC)nc2N1Cc1ccc(Br)cc1` (some centres unmarked) [UB-180652], 10 to 100 nM.
Under `CC[C@@H]1C(=O)N(C)c2cnc(Nc3ccc(C(=O)NCCOCCNCCCCCCC(=O)Nc4cccc5c4CN(C4CCC(=O)NC4=O)C5=O)cc3OC)nc2N1Cc1ccc(Br)cc1` (some centres unmarked) [UB-180653] stands 100 to 1000 nM; under `Cc1sc2c(c1C)C(c1ccc(Cl)cc1)=N[C@@H](CC(=O)NCCOCCNCCCC(=O)Nc1cccc3c1CN(C1CCC(=O)NC1=O)C3=O)c1nnc(C)n1-2` (some centres unmarked) [UB-180656], 100 to 1000 nM.
Under `CC[C@@H]1C(=O)N(C)c2cnc(Nc3ccc(C(=O)NCCOCCNCCCCC(=O)Nc4cccc5c4CN(C4CCC(=O)NC4=O)C5=O)cc3OC)nc2N1C1CCCC1` (some centres unmarked) [UB-180657] stands 10 to 100 nM.
As to `CC[C@@H]1C(=O)N(C)c2cnc(Nc3ccc(C(=O)NCCOCCNCCCC(=O)Nc4cccc5c4CN(C4CCC(=O)NC4=O)C5=O)cc3OC)nc2N1C1CCCC1` (some centres unmarked) [UB-180662], the EC50 lay in the range of 10 to 100 nM.
Under `CC[C@@H]1C(=O)N(C)c2cnc(Nc3ccc(C(=O)NCCOCCOCCOCCNCC(=O)Nc4cccc5c4CN(C4CCC(=O)NC4=O)C5=O)cc3OC)nc2N1Cc1ccc(Br)cc1` (some centres unmarked) [UB-180664] stands 10 to 100 nM.
Under `COc1cc(C(=O)NCCCNCCCCC(=O)Nc2cccc3c2CN(C2CCC(=O)NC2=O)C3=O)ccc1Nc1ncc2c(n1)N(Cc1ccc(Br)cc1)CC(C)(C)C(=O)N2C` (centres unmarked) [UB-180670] stands 100 to 1000 nM; under `COc1cc(C(=O)NCCCNCCCCCCCC(=O)Nc2cccc3c2CN(C2CCC(=O)NC2=O)C3=O)ccc1Nc1ncc2c(n1)N(Cc1ccc(Br)cc1)CC(C)(C)C(=O)N2C` (centres unmarked) [UB-180671], 100 to 1000 nM.
Under `COc1cc(C(=O)NCCOCCNCCCCCCC(=O)Nc2cccc3c2CN(C2CCC(=O)NC2=O)C3=O)ccc1Nc1ncc2c(n1)N(Cc1ccc(Br)cc1)CC(C)(C)C(=O)N2C` (centres unmarked) [UB-180672] stands 100 to 1000 nM.
Consider `CC[C@@H]1C(=O)N(C)c2cnc(Nc3ccc(C(=O)NCc4cn(CCNCCCC(=O)Nc5cccc6c5CN(C5CCC(=O)NC5=O)C6=O)nn4)cc3OC)nc2N1Cc1ccc(Br)cc1` (some centres unmarked) [UB-180676], for which the EC50 fell in the range of 10 to 100 nM.
Under `COc1cc(C(=O)NCCCNCCCC(=O)Nc2cccc3c2CN(C2CCC(=O)NC2=O)C3=O)ccc1Nc1ncc2c(n1)N(Cc1ccc(Br)cc1)CC(C)(C)C(=O)N2C` (centres unmarked) [UB-180677] stands 100 to 1000 nM; under `CC[C@@H]1C(=O)N(C)c2cnc(Nc3ccc(C(=O)NCc4cn(CCNCCC(=O)Nc5cccc6c5CN(C5CCC(=O)NC5=O)C6=O)nn4)cc3OC)nc2N1Cc1ccc(Br)cc1` (some centres unmarked) [UB-180679], 10 to 100 nM; under `CC[C@@H]1C(=O)N(C)c2cnc(Nc3ccc(C(=O)NCCNCCC(=O)Nc4cccc5c4CN(C4CCC(=O)NC4=O)C5=O)cc3OC)nc2N1C1CCCC1` (some centres unmarked) [UB-180682], 10 to 100 nM.
In turn, `CC[C@@H]1C(=O)N(C)c2cnc(Nc3ccc(C(=O)NCCNCCC(=O)Nc4cccc5c4CN(C4CCC(=O)NC4=O)C5=O)cc3OC)nc2N1Cc1ccc(Br)cc1` (some centres unmarked) [UB-180683] yielded a concentration giving a half-maximal response (EC50) greater than 1000 nM.
With `CC[C@@H]1C(=O)N(C)c2cnc(Nc3ccc(C(=O)NC4CCN(CCNCCCCC(=O)Nc5cccc6c5CN(C5CCC(=O)NC5=O)C6=O)CC4)cc3OC)nc2N1C1CCCC1` (some centres unmarked) [UB-180684], the EC50 was in the range of 10 to 100 nM.
In turn, `CC[C@@H]1C(=O)N(C)c2cnc(Nc3ccc(C(=O)NC4CCN(CCNCCCCC(=O)Nc5cccc6c5CN(C5CCC(=O)NC5=O)C6=O)CC4)cc3OC)nc2N1Cc1ccc(Br)cc1` (some centres unmarked) [UB-180685] gave an EC50 of 10 to 100 nM.
Under `CC[C@@H]1C(=O)N(C)c2cnc(Nc3ccc(C(=O)NC4CCN(CCNCCCC(=O)Nc5cccc6c5CN(C5CCC(=O)NC5=O)C6=O)CC4)cc3OC)nc2N1C1CCCC1` (some centres unmarked) [UB-180687] stands 10 to 100 nM; under `CC[C@@H]1C(=O)N(C)c2cnc(Nc3ccc(C(=O)NC4CCN(CCNCCCC(=O)Nc5cccc6c5CN(C5CCC(=O)NC5=O)C6=O)CC4)cc3OC)nc2N1Cc1ccc(Br)cc1` (some centres unmarked) [UB-180688], 10 to 100 nM.
The compound `CC[C@@H]1C(=O)N(C)c2cnc(Nc3ccc(C(=O)NCCNCCCC(=O)Nc4cccc5c4CN(C4CCC(=O)NC4=O)C5=O)cc3OC)nc2N1C1CCCC1` (some centres unmarked) [UB-180689] showed an EC50 of 10 to 100 nM.
As for `CC[C@@H]1C(=O)N(C)c2cnc(Nc3ccc(C(=O)NCCNCCCC(=O)Nc4cccc5c4CN(C4CCC(=O)NC4=O)C5=O)cc3OC)nc2N1Cc1ccc(Br)cc1` (some centres unmarked) [UB-180690], the concentration giving a half-maximal response (EC50) is 10 to 100 nM.
